From US10221426B2, “Constitutively active PYR/PYL receptor proteins for improving plant stress tolerance” (The Regents of the University of California, priority 2009, dated 2019)
pIC50: −log10 of the molar value.

Target: T1, HAB1 in the presence of PYR1 (Arabidopsis thaliana, UniProt O49686)
T1 construct: made in house; host or cells: E. coli BL21[DE3]pLysS
T1 sequence (O49686 1-191): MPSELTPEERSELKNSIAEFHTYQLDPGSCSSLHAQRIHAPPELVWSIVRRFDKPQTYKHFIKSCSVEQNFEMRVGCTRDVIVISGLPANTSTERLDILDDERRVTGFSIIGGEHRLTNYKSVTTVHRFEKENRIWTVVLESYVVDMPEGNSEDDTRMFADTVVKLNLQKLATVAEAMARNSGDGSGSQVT
T1 sequence (Q9CAJ0 23-511 partner): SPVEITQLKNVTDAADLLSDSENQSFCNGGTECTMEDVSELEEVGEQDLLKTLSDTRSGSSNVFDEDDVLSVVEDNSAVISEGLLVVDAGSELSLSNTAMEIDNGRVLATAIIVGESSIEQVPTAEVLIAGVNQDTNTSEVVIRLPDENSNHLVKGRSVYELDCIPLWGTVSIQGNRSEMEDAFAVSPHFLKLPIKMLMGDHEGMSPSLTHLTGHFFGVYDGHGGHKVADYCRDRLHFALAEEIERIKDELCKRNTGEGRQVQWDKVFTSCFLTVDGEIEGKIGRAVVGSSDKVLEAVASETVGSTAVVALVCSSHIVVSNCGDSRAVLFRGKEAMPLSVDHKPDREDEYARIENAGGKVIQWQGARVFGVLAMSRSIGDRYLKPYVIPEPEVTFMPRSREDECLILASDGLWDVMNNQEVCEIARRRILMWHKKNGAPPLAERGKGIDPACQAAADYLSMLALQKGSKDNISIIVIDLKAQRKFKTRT
Assay: PP2C phosphatase assay (pNPP), GST-HAB1 in the presence of PYR1
Format: biochemical
Conditions: 1 μM GST-HAB1, 1.5 μM 6×His-PYR1, 50 mM pNPP; read-out: IC50 of inhibition of HAB1 phosphatase activity in the presence of PYR1
Excerpt: Since ABI1 and relatives are negative regulators of the ABA signaling pathway, we hypothesized that the function of the ABA-promoted PYR1-PP2C interaction was to inhibit phosphatase activity and remove a negative input into the pathway, which would then promote signaling. To test this hypothesis, we examined the effects of (+)-ABA on PP2C enzyme kinetics using recombinant GST-HAB1, 6×His-PYR1 or 6×His-PYR1^P88S using the phosphatase substrate pNPP. The ORF of Arabidopsis HAB1 was amplified by PCR from a pUni clone obtained from the ABRC and cloned into pGex-2T to create a GST-HAB1 fusion protein. Both constructs were transformed into BL21[DE3]pLysS. For expression, cells harboring pGex-GST-HAB1 were grown overnight in 20 ml LB and then inoculated to 700 ml media containing 1 mM MnCl2 and continued incubation with shaking at RT for 8 hr. Protein expression was then induced by addition of IPTG to final concentration of 0.5 mM, and cells were cultured overnight at RT. […] Immediately after mixing, reactions were monitored for hydrolysis of pNPP at A405 t˜10 second intervals over 20 minutes using a Wallac plate reader. Reaction progressions were plotted, initial velocities calculated and converted to specific activities using a standard curve for 4-nitrophenol made in the same buffer system volumes/plate reader used for enzymatic reaction measurements. […]

CC1=CC(=O)CC(C)(C)C1(O)/C=C/C(C)=C\C(=O)O (single isomer, unassigned; (+)) [(+)-ABA]
pIC50: 6.74
